Series [1] is described as follows: Hepatocyte stability assay. The series is classed as in vitro ADME, human. To be noted: hepatocytes. As to the method:
The mean plasma t1/2, z values were approximately 9 hours in rats and 4 hours in dogs. Interspecies scaling based on body weight to predict PK parameters in humans could not be performed because dogs (larger species) cleared Compound 1 faster than rats (smaller species). Therefore, the human PK was projected based on one species (rat). […] This apparent clearance value (CL/F) was used to predict steady-state exposure (AUC and average plasma concentration [Cavg]) in humans for the proposed first-in-human (FIH) starting dose for Study Compound 1-001.
In the liver microsomal stability assay, CLint was 0.601 mL/min/g liver in mouse, 0.563 mL/min/g liver in rat, 0.315 mL/min/g liver in dog, 0.734 mL/min/g liver in monkey, and 0.639 mL/min/g liver in human. In the hepatocyte stability assay, Compound 1 CLint was 0.373 mL/min/g liver in mouse, 0.285 mL/min/g liver in rat, 1.08 mL/min/g liver in dog, 0.533 mL/min/g liver in monkey, and 0.317 mL/min/g liver in human.

The target in series [2] is VEGFR2 (Homo sapiens, UniProt P35968). In words: Kinase catalytic activity assay, radioactive assay platform. The series is classed as biochemical. To be noted: 10 μM ATP. As for the experimental part:
(§1) Compound 1 inhibitory activity was evaluated in multiple kinase catalytic activity assays using a radioactive assay platform. […] All in vitro biochemical assays were performed at 10 μM ATP concentrations.

Series [3] addresses MET (Homo sapiens, UniProt P08581). The description is as above. The series is classed as biochemical. The note with it: 10 μM ATP. As for the experimental part:
as §1

Series [4] has as its target MER (Homo sapiens, UniProt Q12866). Described as above. The series is classed as biochemical. The note with it: 10 μM ATP. As for the experimental part:
as §1

The target of series [5] is AXL (Homo sapiens, UniProt P30530). The series is described as above. The series is classed as biochemical. The note with it: 10 μM ATP. As to the method: as §1
Sequence of AXL (P30530 26-894): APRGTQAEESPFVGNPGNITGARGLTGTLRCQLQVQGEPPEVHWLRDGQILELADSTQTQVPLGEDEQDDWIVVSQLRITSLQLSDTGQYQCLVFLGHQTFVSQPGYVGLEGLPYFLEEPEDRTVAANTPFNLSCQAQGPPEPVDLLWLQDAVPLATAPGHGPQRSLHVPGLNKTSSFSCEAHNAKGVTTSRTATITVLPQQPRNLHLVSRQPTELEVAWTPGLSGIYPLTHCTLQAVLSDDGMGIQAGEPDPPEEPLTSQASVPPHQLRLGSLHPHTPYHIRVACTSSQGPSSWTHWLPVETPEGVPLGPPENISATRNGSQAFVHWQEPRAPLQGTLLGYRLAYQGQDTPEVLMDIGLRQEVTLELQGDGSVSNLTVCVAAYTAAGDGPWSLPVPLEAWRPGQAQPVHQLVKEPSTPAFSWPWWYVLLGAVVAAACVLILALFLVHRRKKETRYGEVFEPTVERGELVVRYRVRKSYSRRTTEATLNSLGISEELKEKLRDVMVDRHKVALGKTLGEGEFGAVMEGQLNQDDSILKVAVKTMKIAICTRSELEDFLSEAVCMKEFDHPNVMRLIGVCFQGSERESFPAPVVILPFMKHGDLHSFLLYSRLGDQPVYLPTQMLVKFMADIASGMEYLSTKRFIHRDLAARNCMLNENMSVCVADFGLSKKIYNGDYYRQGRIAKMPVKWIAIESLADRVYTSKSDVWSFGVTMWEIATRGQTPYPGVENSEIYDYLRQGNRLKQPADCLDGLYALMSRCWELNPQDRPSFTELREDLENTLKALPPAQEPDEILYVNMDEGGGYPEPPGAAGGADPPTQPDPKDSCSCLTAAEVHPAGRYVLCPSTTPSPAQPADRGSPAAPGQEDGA
Series [6] concerns CT26 colon carcinoma cells. In words: Efficacy after oral dosing in CT26 tumor bearing female Balb/c mice. The series is classed as in vivo. From the text:
In this study, the inhibitory effects of Compound 1 as a single agent and in combination with an anti-PD-1 inhibitor in Balb/c mice grafted with CT26 colon carcinoma cells were studied. CT26 cells inoculated into syngeneic mice are highly tumorigenic (Brattain et al. 1980) and share molecular features with undifferentiated, invasive human colorectal carcinoma cells (Castle et al. 2014). Therefore, the CT26 cell line can serve as a valid cellular model for the metastatic and poorly differentiated human colorectal cancer. Moreover, this model has been reported to express significant levels of RTKs, indicating a potential reliance on these signaling pathway for the maintenance of a tumorigenic phenotype in vivo (Pryzybyszewska et al. 2017).
CT26 colon carcinoma cells (ATCC, CRL-2638) were thawed from the Exelixis pharmacology cell bank into T-75 flasks (Corning, 43064U) using fresh culture medium, ie, RPMI-1640 containing 10% fetal bovine serum (GIBCO, A384002). […]
Oral doses were administered via a […], 1.5″ stainless steel needle with silicone tip (VWR, 20068-666). […] Survival was monitored for a maximum of 40 days. […]
All animals were measured twice a week for tumor volume and body weight using Studylog software.
Significance values represent differences in comparison to vehicle or anti-PD-1 treatment groups and were determined using a nonparametric Mann-Whitney U-test. […]

Here are results for 1 compound from patent US12673052B2, “Combinations for the treatment of cancer” (Exelixis, Inc., priority 2020, dated 2026).

Sequence of VEGFR2 (P35968 20-1356): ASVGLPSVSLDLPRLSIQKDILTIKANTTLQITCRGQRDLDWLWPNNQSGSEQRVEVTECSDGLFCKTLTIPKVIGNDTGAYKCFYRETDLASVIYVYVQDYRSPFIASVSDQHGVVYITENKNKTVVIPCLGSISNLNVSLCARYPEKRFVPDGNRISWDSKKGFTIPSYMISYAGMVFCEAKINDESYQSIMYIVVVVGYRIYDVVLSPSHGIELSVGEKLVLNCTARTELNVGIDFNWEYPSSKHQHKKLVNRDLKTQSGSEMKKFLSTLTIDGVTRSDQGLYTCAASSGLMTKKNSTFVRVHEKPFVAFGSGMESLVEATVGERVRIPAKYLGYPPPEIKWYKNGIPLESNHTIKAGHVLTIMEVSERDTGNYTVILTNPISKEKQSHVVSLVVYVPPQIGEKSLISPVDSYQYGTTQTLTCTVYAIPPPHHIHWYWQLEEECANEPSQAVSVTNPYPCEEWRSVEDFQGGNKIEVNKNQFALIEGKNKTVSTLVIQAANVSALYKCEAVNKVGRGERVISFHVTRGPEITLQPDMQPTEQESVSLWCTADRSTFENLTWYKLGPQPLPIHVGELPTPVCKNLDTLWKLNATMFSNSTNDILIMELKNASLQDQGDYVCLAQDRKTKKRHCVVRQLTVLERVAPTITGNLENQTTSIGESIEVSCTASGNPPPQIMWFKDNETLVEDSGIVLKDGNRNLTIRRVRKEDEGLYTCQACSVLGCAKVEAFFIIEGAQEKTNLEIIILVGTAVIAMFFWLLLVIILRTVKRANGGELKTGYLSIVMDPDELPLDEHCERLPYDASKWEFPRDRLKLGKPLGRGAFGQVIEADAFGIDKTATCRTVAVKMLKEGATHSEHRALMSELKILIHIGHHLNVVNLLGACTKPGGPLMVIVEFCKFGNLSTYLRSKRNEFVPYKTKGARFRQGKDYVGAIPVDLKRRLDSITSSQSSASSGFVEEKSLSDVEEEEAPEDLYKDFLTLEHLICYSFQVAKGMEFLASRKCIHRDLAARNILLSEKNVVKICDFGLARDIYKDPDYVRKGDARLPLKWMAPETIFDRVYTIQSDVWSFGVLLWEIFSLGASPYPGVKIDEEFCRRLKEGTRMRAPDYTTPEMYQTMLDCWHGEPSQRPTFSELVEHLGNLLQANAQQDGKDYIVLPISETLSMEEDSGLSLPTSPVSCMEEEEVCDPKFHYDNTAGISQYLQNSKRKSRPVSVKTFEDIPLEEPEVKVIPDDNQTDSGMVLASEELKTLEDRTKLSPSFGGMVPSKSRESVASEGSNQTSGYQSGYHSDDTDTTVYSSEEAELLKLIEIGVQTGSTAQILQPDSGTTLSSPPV
Sequence of MER (Q12866 21-999): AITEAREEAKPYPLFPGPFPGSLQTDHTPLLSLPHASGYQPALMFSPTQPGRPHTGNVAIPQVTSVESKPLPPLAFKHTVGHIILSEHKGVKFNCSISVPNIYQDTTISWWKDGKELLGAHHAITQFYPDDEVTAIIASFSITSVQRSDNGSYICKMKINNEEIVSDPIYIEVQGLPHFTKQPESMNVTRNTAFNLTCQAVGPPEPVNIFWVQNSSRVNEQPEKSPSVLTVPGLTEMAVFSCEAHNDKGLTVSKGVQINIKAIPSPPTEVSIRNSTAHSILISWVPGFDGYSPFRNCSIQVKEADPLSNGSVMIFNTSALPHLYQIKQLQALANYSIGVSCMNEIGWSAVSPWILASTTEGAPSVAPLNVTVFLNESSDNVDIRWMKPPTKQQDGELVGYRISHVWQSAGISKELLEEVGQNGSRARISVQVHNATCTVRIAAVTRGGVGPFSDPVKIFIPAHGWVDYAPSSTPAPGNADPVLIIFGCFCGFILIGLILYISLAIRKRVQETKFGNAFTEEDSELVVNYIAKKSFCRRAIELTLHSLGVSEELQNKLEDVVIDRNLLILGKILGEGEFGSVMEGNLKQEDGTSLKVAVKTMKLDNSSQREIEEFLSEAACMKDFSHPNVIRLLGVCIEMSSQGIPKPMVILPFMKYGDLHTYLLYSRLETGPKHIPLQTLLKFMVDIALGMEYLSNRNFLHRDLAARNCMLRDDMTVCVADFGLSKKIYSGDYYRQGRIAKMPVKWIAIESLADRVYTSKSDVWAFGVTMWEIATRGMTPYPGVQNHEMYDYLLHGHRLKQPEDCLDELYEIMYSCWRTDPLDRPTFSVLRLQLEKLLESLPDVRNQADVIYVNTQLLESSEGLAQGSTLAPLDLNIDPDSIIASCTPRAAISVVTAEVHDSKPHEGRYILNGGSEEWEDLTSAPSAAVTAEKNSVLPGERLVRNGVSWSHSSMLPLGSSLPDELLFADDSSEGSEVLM
Sequence of MET (P08581 25-1390): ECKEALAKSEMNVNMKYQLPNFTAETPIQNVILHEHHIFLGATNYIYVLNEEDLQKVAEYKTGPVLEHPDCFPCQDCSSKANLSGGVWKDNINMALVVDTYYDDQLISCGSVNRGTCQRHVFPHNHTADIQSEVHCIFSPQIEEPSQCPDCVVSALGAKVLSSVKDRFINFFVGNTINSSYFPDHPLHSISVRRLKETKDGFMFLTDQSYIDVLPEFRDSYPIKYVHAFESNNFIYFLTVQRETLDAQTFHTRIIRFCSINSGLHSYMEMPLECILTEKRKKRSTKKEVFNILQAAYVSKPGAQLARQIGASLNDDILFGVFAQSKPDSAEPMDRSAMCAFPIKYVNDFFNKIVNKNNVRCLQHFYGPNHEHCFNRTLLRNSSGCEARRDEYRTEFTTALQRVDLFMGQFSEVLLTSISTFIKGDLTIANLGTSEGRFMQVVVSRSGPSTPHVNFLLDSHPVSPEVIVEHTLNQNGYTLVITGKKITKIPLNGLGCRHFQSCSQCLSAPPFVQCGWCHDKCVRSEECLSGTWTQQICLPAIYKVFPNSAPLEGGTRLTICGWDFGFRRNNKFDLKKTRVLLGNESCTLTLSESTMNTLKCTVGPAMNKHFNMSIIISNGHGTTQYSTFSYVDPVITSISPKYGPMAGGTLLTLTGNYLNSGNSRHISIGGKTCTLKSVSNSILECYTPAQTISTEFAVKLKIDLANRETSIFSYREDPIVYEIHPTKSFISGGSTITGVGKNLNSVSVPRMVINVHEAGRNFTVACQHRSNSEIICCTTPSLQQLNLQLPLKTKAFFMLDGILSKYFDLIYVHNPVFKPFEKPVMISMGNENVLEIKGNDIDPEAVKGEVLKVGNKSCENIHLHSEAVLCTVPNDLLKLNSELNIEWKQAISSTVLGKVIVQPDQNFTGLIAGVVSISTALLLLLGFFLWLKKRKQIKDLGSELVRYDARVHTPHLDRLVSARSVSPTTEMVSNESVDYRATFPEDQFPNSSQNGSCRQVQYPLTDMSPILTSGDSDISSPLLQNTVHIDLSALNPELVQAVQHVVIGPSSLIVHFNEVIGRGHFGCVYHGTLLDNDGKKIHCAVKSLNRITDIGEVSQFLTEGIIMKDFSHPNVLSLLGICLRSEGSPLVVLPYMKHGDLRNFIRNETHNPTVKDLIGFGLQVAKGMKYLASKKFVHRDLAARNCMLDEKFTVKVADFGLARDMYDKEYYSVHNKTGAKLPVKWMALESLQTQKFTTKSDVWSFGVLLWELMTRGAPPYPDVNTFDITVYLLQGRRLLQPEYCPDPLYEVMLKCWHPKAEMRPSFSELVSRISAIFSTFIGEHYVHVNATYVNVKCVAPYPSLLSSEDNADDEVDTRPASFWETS

In general, IC50 refers to the concentration at which inhibition is half-maximal. In series [1], `CNC(=O)c1cc2c(Oc3ccc(NC(=O)C4(C(=O)Nc5ccc(F)cc5)CC4)cc3)ccnc2cc1OC` [Compound 1, 1-N′-(4-Fluorophenvl)-1-N-[4-[7-methoxy-6-(methylcarbamovl)quinolin-4-yl]oxyphenyl]cyclopropane-1,1-dicarboxamide] returned a CLint of 0.317 mL/min/g liver. The IC50 in series [2] stood at 15 nM; in series [3], 3 nM; in series [4], 0.6 nM; in series [5], 5.8 nM. For the same compound, the “survival (Kaplan Meier)” value in series [6] (40-day dosing, P<0.0001 Compound 1 vs vehicle, P<0.0001 combination vs aPD-1 alone, P<0.05 combination vs Compound 1) is “Survival benefit and dose response”. Further, the tumor growth result in series [6] (single agent 1, 3, 10, and 30 mg/kg/day for 40 days) was “tumor growth delay”.
